Test results: US20090029949A1, “GPCR Ligands Identified by Computational Modeling” (priority 2006, published 2009)

Legend:
S1P1 mutant V3.40L = target: T1, S1P1 mutant V3.40L (Homo sapiens, UniProt P21453, V132L); assay: [35S]GTPγS binding, S1P1 V3.40L; type: biochemical; conditions: S1P-induced, S1P1 V3.40L in RH7777 cells
T1 construct: expressed in transfected cells; host or cells: RH7777 (transient, pcDNA3.1)
Protocol: (§1) RH7777 and HEK-293 cells (ATCC, Manassas, Va.) were maintained in Dulbecco's modified minimal essential medium (DMEM) containing 10% fetal bovine serum (Hyclone, Logan, Utah). Cells (2×10^6) were transfected with 2 μg of plasmid DNA with Effectene (Qiagen, Valencia, Calif.) according to the manufacturer's instructions, for 24 h. Before ligand binding and receptor activation assays, the cells were washed twice with serum-free DMEM and serum-starved for at least 6 h.
(§2) S1P1 Receptor Activation Assays Receptor functional assays were performed in transiently transfected RH7777 cells by measuring S1P-activated [^35S]GTPγS binding as previously described (28).

S1P1 mutant C5.44I = target: T2, S1P1 mutant C5.44I (Homo sapiens, UniProt P21453, C206I); assay: [35S]GTPγS binding, S1P1 C5.44I; type: biochemical; conditions: S1P-induced, S1P1 C5.44I in RH7777 cells
T2 construct: expressed in transfected cells; host or cells: RH7777 (transient, pcDNA3.1)
T2 sequence (P21453 whole entry C206I): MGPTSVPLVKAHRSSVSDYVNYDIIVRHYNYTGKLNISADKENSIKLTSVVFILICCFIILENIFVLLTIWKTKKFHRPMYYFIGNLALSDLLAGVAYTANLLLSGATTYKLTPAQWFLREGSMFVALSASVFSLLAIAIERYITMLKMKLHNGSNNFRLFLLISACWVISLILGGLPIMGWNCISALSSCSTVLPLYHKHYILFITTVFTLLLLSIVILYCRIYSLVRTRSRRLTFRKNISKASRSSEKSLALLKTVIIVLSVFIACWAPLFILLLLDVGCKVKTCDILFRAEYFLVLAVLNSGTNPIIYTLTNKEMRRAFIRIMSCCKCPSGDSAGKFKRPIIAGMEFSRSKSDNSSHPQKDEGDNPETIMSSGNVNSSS
Protocol: as §1, §2

S1P1 mutant L5.51G = target: T3, S1P1 mutant L5.51G (Homo sapiens, UniProt P21453, L213G); assay: [35S]GTPγS binding, S1P1 L5.51G; type: biochemical; conditions: S1P-induced, S1P1 L5.51G in RH7777 cells
T3 construct: expressed in transfected cells; host or cells: RH7777 (transient, pcDNA3.1)
T3 sequence (P21453 whole entry L213G): as the sequence (P21453 whole entry C206I) above, with I206C, L213G counted along it
Protocol: as §1, §2

S1P1 mutant F6.44Y = target: T4, S1P1 mutant F6.44Y (Homo sapiens, UniProt P21453, F265Y); assay: [35S]GTPγS binding, S1P1 F6.44Y; type: biochemical; conditions: S1P-induced, S1P1 F6.44Y in RH7777 cells
T4 construct: expressed in transfected cells; host or cells: RH7777
T4 sequence (P21453 whole entry F265Y): as the sequence (P21453 whole entry C206I) above, with I206C, F265Y counted along it
Protocol: as §1, §2

S1P1 mutant F6.44G = target: T5, S1P1 mutant F6.44G (Homo sapiens, UniProt P21453, F265G); assay: [35S]GTPγS binding, S1P1 F6.44G; type: biochemical; conditions: S1P-induced, S1P1 F6.44G in RH7777 cells
T5 construct: expressed in transfected cells; host or cells: RH7777
T5 sequence (P21453 whole entry F265G): as the sequence (P21453 whole entry C206I) above, with I206C, F265G counted along it
Protocol: as §1, §2

S1P1 mutant W6.48A [1] = target: T6, S1P1 mutant W6.48A (Homo sapiens, UniProt P21453, W269A); assay: [35S]GTPγS binding, S1P1 W6.48A; type: biochemical; conditions: S1P-induced, S1P1 W6.48A in RH7777 cells
T6 construct: expressed in transfected cells
T6 sequence (P21453 whole entry W269A): as the sequence (P21453 whole entry C206I) above, with I206C, W269A counted along it
Protocol: as §1, §2

S1P1 mutant M3.32K = target: T7, S1P1 mutant M3.32K (Homo sapiens, UniProt P21453, M124K); assay: [35S]GTPγS binding, S1P1 M3.32K; type: biochemical; conditions: S1P-induced, S1P1 M3.32K in RH7777 cells
T7 construct: expressed in transfected cells; host or cells: RH7777
T7 sequence (P21453 whole entry M124K): as the sequence (P21453 whole entry C206I) above, with M124K, I206C counted along it
Protocol: as §1, §2

S1P1 mutant M3.32G = target: T8, S1P1 mutant M3.32G (Homo sapiens, UniProt P21453, M124G); assay: [35S]GTPγS binding, S1P1 M3.32G; type: biochemical; conditions: S1P-induced, S1P1 M3.32G in RH7777 cells
T8 construct: expressed in transfected cells; host or cells: RH7777
T8 sequence (P21453 whole entry M124G): as the sequence (P21453 whole entry C206I) above, with M124G, I206C counted along it
Protocol: as §1, §2

S1P1 mutant V5.47L = target: T9, S1P1 mutant V5.47L (Homo sapiens, UniProt P21453, V209L); assay: [35S]GTPγS binding, S1P1 V5.47L; type: biochemical; conditions: S1P-induced, S1P1 V5.47L in RH7777 cells
T9 construct: expressed in transfected cells; host or cells: RH7777
T9 sequence (P21453 whole entry V209L): as the sequence (P21453 whole entry C206I) above, with I206C, V209L counted along it
Protocol: as §1, §2

S1P1 mutant V6.40T = target: T10, S1P1 mutant V6.40T (Homo sapiens, UniProt P21453, V261T); assay: [35S]GTPγS binding, S1P1 V6.40T; type: biochemical; conditions: S1P-induced, S1P1 V6.40T in RH7777 cells
T10 construct: expressed in transfected cells; host or cells: RH7777
T10 sequence (P21453 whole entry V261T): as the sequence (P21453 whole entry C206I) above, with I206C, V261T counted along it
Protocol: as §1, §2

S1P1 mutant L6.41G = target: T11, S1P1 mutant L6.41G (Homo sapiens, UniProt P21453, L262G); assay: [35S]GTPγS binding, S1P1 L6.41G; type: biochemical; conditions: S1P-induced, S1P1 L6.41G in RH7777 cells; mutant not detected at the cell surface
T11 construct: expressed in transfected cells; host or cells: RH7777
T11 sequence (P21453 whole entry L262G): as the sequence (P21453 whole entry C206I) above, with I206C, L262G counted along it
Protocol: as §1, §2

[2] = target: T12, S1P1 double mutant L3.43, 3.44E (Homo sapiens, UniProt P21453, L135E/L136E); assay: [35S]GTPγS binding, S1P1 L3.43, 3.44E; type: biochemical; conditions: S1P-induced, S1P1 L3.43, 3.44E in RH7777 cells
T12 construct: expressed in transfected cells; host or cells: RH7777
T12 sequence (P21453 whole entry L135E/L136E): as the sequence (P21453 whole entry C206I) above, with L135E, L136E, I206C counted along it
Protocol: as §1, §2

S1P1 mutant F5.48G [3] = target: T13, S1P1 mutant F5.48G (Homo sapiens, UniProt P21453, F210G); assay: [35S]GTPγS binding, S1P1 F5.48G; type: biochemical; conditions: S1P-induced, S1P1 F5.48G in RH7777 cells
T13 construct: expressed in transfected cells
T13 sequence (P21453 whole entry F210G): as the sequence (P21453 whole entry C206I) above, with I206C, F210G counted along it
Protocol: as §1, §2

S1P1 mutant L5.52A = target: T14, S1P1 mutant L5.52A (Homo sapiens, UniProt P21453, L214A); assay: [35S]GTPγS binding, S1P1 L5.52A; type: biochemical; conditions: S1P-induced, S1P1 L5.52A in RH7777 cells
T14 construct: expressed in transfected cells; host or cells: RH7777
T14 sequence (P21453 whole entry L214A): as the sequence (P21453 whole entry C206I) above, with I206C, L214A counted along it
Protocol: as §1, §2

S1P1 mutant F5.48G [4] = target: T13, S1P1 mutant F5.48G; assay: [32P]S1P radioligand binding, RH7777 cells, F5.48G; conditions: radioligand 50 nM, S1P1 F5.48G
Protocol: as §1
(§3) The S1P binding assays were done essentially as previously described (28). Transfected RH7777 cells (5×10^5) were incubated at 4° C. in 20 mM Tris-HCl (pH 7.5) binding buffer containing 100 mM NaCl, 15 mM NaF, protease inhibitor cocktail (Sigma-Aldrich), and 0.2 mg/ml essentially fatty-acid free BSA with 1 nM [^32P]S1P in 50 nM S1P for 40 min. Cells were centrifuged and washed twice in binding buffer. The final pellet was resuspended in 2:1 CHCl3/MeOH and the suspension was equilibrated in scintillation fluid overnight. Cell-bound radioactivity was measured by liquid scintillation counting using a Beckman LS5000 TA counter (Beckman Coulter, Irvine, Calif.). Specific binding was defined as the difference between total binding and non-specific binding (in the presence of 2-5 μM cold S1P). Standard errors were computed on the basis of triplicate samples from two simultaneous transfections.

S1P1 mutant W6.48A [5] = target: T6, S1P1 mutant W6.48A; assay: [32P]S1P radioligand binding, RH7777 cells, W6.48A; conditions: radioligand 50 nM, S1P1 W6.48A
Protocol: as §1, §3

S1P1 mutant L3.36E = S1P1 mutant L3.36E (Homo sapiens, UniProt P21453, L128E); assay: [35S]GTPγS binding, S1P1 L3.36E; type: biochemical; set-up: expressed in transfected cells; host or cells: RH7777 (transient, pcDNA3.1); conditions: S1P-induced, S1P1 L3.36E in RH7777 cells
S1P1 mutant L3.36E, sequence (P21453 whole entry L128E): as the sequence (P21453 whole entry C206I) above, with L128E, I206C counted along it
Protocol: as §1, §2

T1 sequence (P21453 whole entry V132L): as the sequence (P21453 whole entry C206I) above, with V132L, I206C counted along it

Structure (SMILES): CCCCCCCCCCCCC/C=C/[C@@H](O)[C@@H](N)COP(=O)(O)O [S1P, Sphingosine 1-phosphate]
- EC50 (S1P1 mutant V3.40L): 7 ± 4.5 nM
- Emax (S1P1 mutant V3.40L; read-out: % WT Emax + s.d.): 55%
- EC50 (S1P1 mutant C5.44I): 20.4 ± 2.1 nM
- Emax (S1P1 mutant C5.44I; read-out: % WT Emax + s.d.): 37%
- EC50 (S1P1 mutant L5.51G): 2.6 ± 2.1 nM
- Emax (S1P1 mutant L5.51G; read-out: % WT Emax + s.d.): 46%
- EC50 (S1P1 mutant F6.44Y): 3.7 ± 3.3 nM
- Emax (S1P1 mutant F6.44Y; read-out: % WT Emax + s.d.): 37%
- % WT Emax + s.d. (S1P1 mutant F6.44G): ∞
- EC50 + s.d. (S1P1 mutant F6.44G): ∞
- EC50 (S1P1 mutant W6.48A [1]): 13 ± 4.2 nM
- Emax (S1P1 mutant W6.48A [1]; read-out: % WT Emax + s.d.): 34 ± 1.5%
- % WT Emax + s.d. (S1P1 mutant M3.32K): ∞
- EC50 + s.d. (S1P1 mutant M3.32K): ∞
- EC50 (S1P1 mutant M3.32G): 35 ± 5 nM
- Emax (S1P1 mutant M3.32G; read-out: % WT Emax + s.d.): 77%
- % WT Emax + s.d. (S1P1 mutant V5.47L): ∞
- EC50 + s.d. (S1P1 mutant V5.47L): ∞
- EC50 (S1P1 mutant V6.40T): 57.3 nM
- Emax (S1P1 mutant V6.40T; read-out: % WT Emax + s.d.): 61%
- % WT Emax + s.d. (S1P1 mutant L6.41G): ∞
- EC50 + s.d. (S1P1 mutant L6.41G): ∞
- % WT Emax + s.d. [2]: ∞
- EC50 + s.d. [2]: ∞
- % WT Emax + s.d. (S1P1 mutant F5.48G [3]): ∞
- EC50 + s.d. (S1P1 mutant F5.48G [3]): ∞
- % WT Emax + s.d. (S1P1 mutant L5.52A): ∞
- EC50 + s.d. (S1P1 mutant L5.52A): ∞
- [32P]S1P binding relative to WT (S1P1 mutant F5.48G [4]): > 50 % of the WT
- [32P]S1P binding relative to WT (S1P1 mutant W6.48A [5]): > 50 % of the WT
- EC50 (S1P1 mutant L3.36E): 0.62 ± 0.46 nM
- Emax (S1P1 mutant L3.36E; read-out: % WT Emax + s.d.): 39 ± 2.8%
